Experimental data taken from patent publication EP0513703A2, “Carbamate esters of eseroline having anticholinesterase activity, a process for their preparation and relative pharmaceutical compositions containing them as the active principle” (priority 1991, dated 1992).
Like-named read-outs stand apart in the source and are kept apart here.

What was measured:
mice (Swiss strain) [1] = test: Acute toxicity, LD50 by oral route in mice (class D derivatives); type: in vivo; settings: mouse, suspension in 2 % carboxymethylcellulose, observation 7 days
Source text: The letal doses 50 (LD50) by oral route (suspension in 2 % carboxymethylcellulose) are reported hereinbelow: TABLE 6

[2] = system: acetylcholinesterase (AchE); type: in vivo, Wistar male rats; settings: rat; for inhibitory acetylcholinesterase activity (in words): oral, 1-2 mg/kg
mouse [3] = test: Spontaneous motility, Dews method modified according to Carminati (class D derivatives); type: in vivo; settings: mouse (Swiss)
Source text: (§1) The Dews method was used, modified according to Carminati (Arch. int. Pharmacodyn. et Thér 181, 68,1969).

SWISS male mice [4] = test: Electroencephalographic activity (class D derivatives); type: in vivo; settings: 3mg/kg/os, in the course of the successive 30 minutes
rabbit [5] = test: Effect on the duration of the curarization by succinylcholine (class D derivatives); type: in vivo; settings: anesthetized rabbit, 0.5 mg intravenous
[6] = Pharmacokinetics, plasma level by HPLC (MGF001); type: in vivo, Wistar male rats; settings: rat, 2mg/kg/os
Protocol: (§2) The presence of said substance in plasma was detected by HPLC.
(§3) With the optimized method the detection limit was of 0.15 µg per ml of plasma.

[7] = molecular target: T1, AChE (acetylcholinesterase) on the mouse brain (Mus musculus, UniProt P21836); test: Inhibition of AChE on the mouse brain after single doses (class F derivatives); type: in vivo; settings: single doses (0.4-7 mg/kg)
T1 construct: from tissue; host or cells: mouse brain
T1 sequence (P21836 32-614): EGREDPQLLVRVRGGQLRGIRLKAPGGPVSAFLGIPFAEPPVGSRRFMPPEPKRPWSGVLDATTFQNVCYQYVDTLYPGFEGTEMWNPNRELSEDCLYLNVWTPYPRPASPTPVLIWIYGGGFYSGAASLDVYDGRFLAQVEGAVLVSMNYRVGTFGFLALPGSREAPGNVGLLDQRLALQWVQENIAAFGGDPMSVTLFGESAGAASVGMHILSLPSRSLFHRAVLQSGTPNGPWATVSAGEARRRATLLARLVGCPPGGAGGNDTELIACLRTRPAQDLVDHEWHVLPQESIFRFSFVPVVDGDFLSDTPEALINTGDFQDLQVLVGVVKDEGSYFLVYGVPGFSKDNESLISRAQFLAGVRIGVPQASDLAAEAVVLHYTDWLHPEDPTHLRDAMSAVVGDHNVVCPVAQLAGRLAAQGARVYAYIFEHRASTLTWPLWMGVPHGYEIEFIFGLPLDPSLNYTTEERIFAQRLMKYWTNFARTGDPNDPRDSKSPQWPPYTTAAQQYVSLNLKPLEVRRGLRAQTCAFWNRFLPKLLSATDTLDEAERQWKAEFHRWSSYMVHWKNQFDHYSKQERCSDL

motor activity [8] = test: Antagonistic effect on the stimulating effect of scopolamine (class F derivatives); type: in vivo; settings: scopolamine 1 mg/kg; for oral dose countering the stimulating effect of scopolamine: oral administration
Protocol: At the dose of 1 mg/kg the scopolamine produce a clear stimulating effect (100 % of motor activity increase). This is countered by the oral administration of 2.5 mg of the three products MGR001, MGR002 and MGR003.

[9] = Pharmacokinetics after oral and intramuscular administration (class F derivatives); type: in vivo; settings: rats; for maximum peak / time of the maximum peak after the oral administration: oral administration 7 mg/kg
Protocol: The kinetics of MGR001, MGR002, and MGR003 is determined in rats after oral administration and intramuscular of respectively 7 and 3.5 mg/kg. The maximum peak of 30 µg/ml is found 1 hour after the oral administration.

[10] = system: mice (Swiss strain of both sexes); test: Acute toxicity, LD50 by oral administration in mice (class F derivatives); settings: mice, oral administration
mice (Swiss strain) [11] = test: Acute toxicity, LD50 by oral route in mice (class A derivatives); type: in vivo; settings: mouse, suspension in 2 % carboxymethylcellulose, observation 7 days
Source text: The letal doses 50 (LD50) by oral route (suspension in 2 % carboxymethylcellulose) are reported herinbelow: TABLE 1

[12] = system: acetylcholinesterase (AchE); type: in vivo, Wistar male rats; settings: rat; for inhibitory cerebral and serumal acetylcholinesterase activity (in words): oral, 1.5 to 4.5 mg/kg
mouse [13] = test: Spontaneous motility, Dews method modified according to Carminati (class A derivatives); type: in vivo; settings: mouse (Swiss), oral, starting from minimum doses of 4-6 mg/kg
Source text: as §1

SWISS male mice [14] = test: Electroencephalographic activity (class A derivatives); type: in vivo; settings: 6 mg/kg/os, in the course of the successive 30 minutes
rabbit [15] = test: Effect on the duration of the curarization by succinylcholine (class A derivatives); type: in vivo; settings: anesthetized rabbit, 0.8 mg/kg intravenous
Source text: . […] By using the same method (male rabbits of the tawny strain of Bourgogne; […]

[16] = Pharmacokinetics, plasma level by HPLC (MGS101); type: in vivo, Wistar male rats; settings: rat, 6 mg/kg/os
Protocol: as §2, §3

motor activity [17] = test: Antagonistic effect on the stimulating effect of scopolamine (class B derivatives); type: in vivo; settings: scopolamine 1 mg/kg
Protocol: At the dose of 1 mg/kg, scopolamine produces an evident stimulating effect (100% increase in motor activity).
This effect is countered by the oral administration of 2.5 mg of the above mentioned compounds.

motor activity [18] = test: Antagonist effect on the stimulating effect of scopolamine (class C derivatives); type: in vivo; settings: scopolamine 1 mg/kg
Protocol: This is countered by the oral administration of 2.5 mg of ES001, ES002, ES003.

[19] = acetylcholinesterase inhibition 20 minutes after oral administration, limits in brackets

For CNCCCCCCCNC(=O)Oc1ccc2c(c1)[C@]1(C)CCN(C)[C@@H]1N2C [MGF001, (3a S-cis) - 1,2,3,3a,8,8a hexahydro - 1,3a,8 - trimethyl pyrrol [2,3-b]-indol-5-ol-N-methyl-aminoheptyl carbamate ester], which LD50 per os (mice (Swiss strain) [1]) is on record?
The LD50 per os was 461.44 ± 51.33 mg/kg.

What about the “INHIBITION % OF ACETYLCHOLINESTERASE (AchE) after 60 minutes brain” value ([2]; 2 mg/kg/OS) of the same compound?
Its value is 46.38 ± 4.12%.

What about the “INHIBITION % OF ACETYLCHOLINESTERASE (AchE) after 60 minutes serum” value ([2]; 2 mg/kg/OS) of the same compound?
Its value is 42.6 ± 5.28%.

What about the “INHIBITION % OF ACETYLCHOLINESTERASE (AchE) after 120 minutes brain” value ([2]; 2 mg/kg/OS) of the same compound?
The value was 25.45 ± 2.18%.

What about the “INHIBITION % OF ACETYLCHOLINESTERASE (AchE) after 120 minutes serum” value ([2]; 2 mg/kg/OS) of the same compound?
The value was 19.83 ± 4.27%.

What about the “ED50 (mg/kg/os) brain” value [2, 19] of the same compound?
Its value is 1.83 (1.14 - 2.94) mg/kg/os.

What about the “ED50 (mg/kg/os) serum” value [2, 19] of the same compound?
The value was 1.90 (1.13 - 3.20) mg/kg/os.

And the “inhibitory acetylcholinesterase activity (in words)” value [2]?
The value was “clear inhibitory dose-dependent and reversible”.

And the “oral dose causing a significant decrease of the spontaneous motility” value (mouse [3])?
The value was 2.5 to 5 mg/kg.

What about the “modifications of the electroencephalogram” value (SWISS male mice [4]) of the same compound?
The value was “increase of the amplitude and a decrease of the frequency of the electroencephalogram”.

What about the “curare effect of succinylcholine compared with physostigmine” value (rabbit [5]) of the same compound?
The value was “prolonged in the same way as physostigmine the curare effect of succinylcholine”.

And the “concentration in plasma after 20 minutes” value [6]?
The value was 11480 ± 2230 ng/mL.

And the “concentration in plasma after 120 minutes” value [6]?
Its value is 28410 ± 8400 ng/mL.

What about the “concentration in plasma after 12 hours” value [6] of the same compound?
The value was 10640 ± 5460 ng/mL.

What about the “maximum peak in plasma” value [6] of the same compound?
Its value is 47.60 ± 9.12 µg/mL.

What about the “time of the maximum peak in plasma” value [6] of the same compound?
Its value is 90 '.

What does the source list for CNCCCCCNC(=O)Oc1ccc2c(c1)[C@]1(C)CCN(C)[C@@H]1N2C [MGF002, (3a S-cis) - 1,2,3,3a,8,8a hexahydro - 1,3a,8 - trimethyl pyrrol [2,3,b]-indol-5-ol-N-methyl-aminopentyl carbamate ester]?
LD50 per os (mice (Swiss strain) [1]): 436.72 ± 23.45 mg/kg; inhibitory acetylcholinesterase activity (in words) [2]: clear inhibitory dose-dependent and reversible; oral dose causing a significant decrease of the spontaneous motility (mouse [3]): 2.5 to 5 mg/kg; curare effect of succinylcholine compared with physostigmine (rabbit [5]): prolonged in the same way as physostigmine the curare effect of succinylcholine

What does the source list for CN1CC[C@@]2(C)c3cc(OC(=O)NCCCCCCCN)ccc3N(C)[C@@H]12 [MGF005, (3a S-cis) - 1,2,3,3a,8,8a hexahydro - 1,3a,8 - trimethyl pyrrol [2,3,b]-indol-5-ol-amino heptyl carbamate ester]?
LD50 per os (mice (Swiss strain) [1]): 428.42 ± 56.21 mg/kg; inhibitory acetylcholinesterase activity (in words) [2]: clear inhibitory dose-dependent and reversible; oral dose causing a significant decrease of the spontaneous motility (mouse [3]): 2.5 to 5 mg/kg

What does the source list for CC(=O)OCC(COP(=O)(O)OCCNC(=O)Oc1ccc2c(c1)[C@]1(C)CCN(C)[C@@H]1N2C)OC(C)=O (stereo partly drawn) [MGR001, (3aS-cis) 1,2,3,3a,8,8a-hexahydro-1,3a,8 trimethyl-pyrrol-[2,3-b]-indol-5-ol-diacetylglycerylphosphoryl-ethyl carbamate ester]?
inhibition of AChE (acetylcholinesterase) on the mouse brain (in words) [7]: dose-dependence and reversible inhibition; oral dose countering the stimulating effect of scopolamine (motor activity [8]): 2.5 mg; liver kinetics / excretion [9]: pass through into the urine unchanged; maximum peak [9]: 30 µg/mL; time of the maximum peak after the oral administration [9]: 1 h; LD50 [10]: 500 mg/kg

What does the source list for CN1CC[C@@]2(C)c3cc(OC(=O)NCCOP(=O)(O)OCC(O)CO)ccc3N(C)[C@@H]12 (stereo partly drawn) [MGR002, (3aS-cis) 1,2,3,3a,8,8a-hexahydro-1,3a,8 trimethyl-pyrrol-[2,3-b]-indol-5-ol-glycerylphosphoryl-ethyl carbamate ester]?
inhibition of AChE (acetylcholinesterase) on the mouse brain (in words) [7]: dose-dependence and reversible inhibition; oral dose countering the stimulating effect of scopolamine (motor activity [8]): 2.5 mg; liver kinetics / excretion [9]: pass through into the urine unchanged; maximum peak [9]: 30 µg/mL; time of the maximum peak after the oral administration [9]: 1 h; LD50 [10]: 485 mg/kg

For CC(=O)OCC(COP(=O)(O)OC[C@H](NC(=O)Oc1ccc2c(c1)[C@]1(C)CCN(C)[C@@H]1N2C)C(=O)O)OC(C)=O (stereo partly drawn) [MGR003, (3aS-cis) 1,2,3,3a,8,8a-hexahydro - 1,3a,8 trimethyl-pyrrol-[2,3-b]-indol-5-ol-diacetyl-glycerylphosphoryl-2L -carboxylethyl carbamate ester], which “inhibition of AChE (acetylcholinesterase) on the mouse brain (in words)” value [7] is on record?
The value was “dose-dependence and reversible inhibition”.

And the “oral dose countering the stimulating effect of scopolamine” value (motor activity [8])?
Its value is 2.5 mg.

And the maximum peak [9]?
The maximum peak was 30 µg/mL.

And the “time of the maximum peak after the oral administration” value [9]?
Its value is 1 h.

What about the LD50 [10] of the same compound?
The LD50 was 350 mg/kg.

What does the source list for CC[C@H](C)[C@H](NC(=O)Oc1ccc2c(c1)[C@]1(C)CCN(C)[C@@H]1N2C)C(=O)O [MGS101]?
LD50 per os (mice (Swiss strain) [11]): 332.8 ± 6.20 mg/kg; INHIBITION % OF ACETYLCHOLINESTERASE (AchE) after 60 minutes brain ([12]; 3.5 mg/kg/OS): 38.71 ± 6.12%; INHIBITION % OF ACETYLCHOLINESTERASE (AchE) after 60 minutes serum ([12]; 3.5 mg/kg/OS): 31.6 ± 4.25%; INHIBITION % OF ACETYLCHOLINESTERASE (AchE) after 120 minutes serum ([12]; 3.5 mg/kg/OS): 20.12 ± 2.40%; ED50 (mg/kg/os) brain [12, 19]: 2.89 (1.83 - 4.59) mg/kg/os; ED50 (mg/kg/os) serum [12, 19]: 2.89 (1.82 - 4.49) mg/kg/os; inhibitory cerebral and serumal acetylcholinesterase activity (in words) [12]: clear inhibitory dose-dependent and reversible; decrease of the spontaneous motility (on average) (mouse [13]): ~-30%; modifications of the electroencephalogram (SWISS male mice [14]): increase of the amplitude and a decrease of the frequency of the electroencephalogram; effect on the curarization by succinylcholine compared with physostigmine (rabbit [15]): induced the same anticholinesterase effect of physostigmine; concentration in plasma after 20 minutes [16]: 15910 ± 4210 ng/mL; concentration in plasma after 24 hours [16]: 4310 ± 1980 ng/mL; concentration in plasma at the twelfth hour [16]: 14220 ± 3120 ng/mL; maximum peak in plasma [16]: 33.81 ± 6.15 µg/mL; time of the maximum peak in plasma [16]: 90 '

With CCCCCCCOC(=O)[C@@H](NC(=O)Oc1ccc2c(c1)[C@]1(C)CCN(C)[C@@H]1N2C)[C@@H](C)CC [MGS102, (3aS-cis) 1,2,3,3a,8,8a hexahydro-1,3a, 8-trimethyl-pyrrol (2,3-b) indol-5-ol-L-(3-methyl-2 carboxy-n-heptyl)-butyl-carbamate] as the compound, how does the LD50 per os (mice (Swiss strain) [11]) read?
Its LD50 per os is 358.3 ± 18.83 mg/kg.

And the “inhibitory cerebral and serumal acetylcholinesterase activity (in words)” value [12]?
Its value is “clear inhibitory dose-dependent and reversible”.

What about the “decrease of the spontaneous motility (on average)” value (mouse [13]) of the same compound?
The value was about -30%.

And the “effect on the curarization by succinylcholine compared with physostigmine” value (rabbit [15])?
Its value is “induced the same anticholinesterase effect of physostigmine”.

What does the source list for CN1[C@@H]2C[C@@H](OC(=O)[C@H](CO)c3ccccc3)C[C@H]1[C@@H]1O[C@@H]12 [scopolamine, reference compound]?
increase in motor activity (motor activity [17]): 100%; increase in motor activity (motor activity [18]): 100%; motor activity increase (motor activity [8]): 100%
